The assay concerns the target recombinant SARS-Cov-2 M^pro (Severe acute respiratory syndrome coronavirus 2 (2019-nCoV) (SARS-CoV-2), UniProt P0DTD1). Kind of assay: biochemical.
The mark [1] stands for this setting: read-out: IC50 (μM), inhibition of SARS-Cov-2 M^pro, Table 4.
[2] abbreviates: read-out: IC50 (μM), inhibition of SARS-CoV-2 M^pro, Table 1, 100 nM M^pro, triplicate, perampanel: fluorescence of compound interfered with assay.
Where [3] appears, read: IC50 (μM), inhibition of SARS-Cov-2 M^pro, Table 4.

Where “and” joins values, the source holds several entries; their conditions need not be identical. Identical values can stand only once. Like-named read-outs stand apart in the source and are kept apart here.

With `O=c1[nH]cc(-c2cc(-c3cc(Cl)cc(OCc4cccc(F)c4)c3)c(=O)n(-c3cccnc3)c2)c(=O)[nH]1` [Compound 35, 5-(3-(3-Chloro-5-((3-fluorobenzyl)oxy)phenyl)-2-oxo-2H-[1,3′-bipyridin]-5-yl)pyrimidine-2,4(1H,3H)-dione], the IC50 is 0.018 to 0.037 µM (read-out: IC50) and 0.037 µM under setting [1].

As for `O=c1[nH]cc(-c2cc(-c3cc(Cl)cc(OCc4c(F)cccc4F)c3)c(=O)n(-c3cccnc3)c2)c(=O)[nH]1` [Compound 36, 5-(3-(3-Chloro-5-((2,6-difluorobenzyl)oxy)phenyl)-2-oxo-2H-[1,3′-bipyridin]-5-yl)pyrimidine-2,4(1H,3H)-dione], the IC50 (read-out: IC50) lay within 0.018 to 0.037 µM and the IC50 under setting [1] is 0.036 µM.

Consider `N#Cc1ccccc1-c1cc(-c2cc(Cl)cc(OCCc3ccccc3)c2)c(=O)n(-c2cccnc2)c1` [Compound 17, 2-(3-(3-Chloro-5-phenethoxyphenyl)-2-oxo-2H-[1,3′-bi-pyridin]-5-yl)benzonitrile], for which the IC50 is 0.51 µM (read-out: IC50), 0.51 ± 0.02 µM under setting [2] and 0.51 ± 0.015 µM under setting [1].

`N#Cc1ccccc1-c1cc(-c2cc(Cl)cc(Cl)c2)c(=O)n(-c2ccc[n+]([O-])c2)c1` [Compound 11]: under setting [1], the IC50 lay within 5 to 20 µM.

In the case of `N#Cc1ccccc1-c1cc(-c2ccccn2)cn(-c2ccccc2)c1=O` [Perampanel, perampanel, reference compound], the IC50 by setting is: (IC50) 100 to 250 µM and > 100 µM; (IC50 (μM), inhibition of SARS-CoV-2 M^pro, Table 1, 100 nM M^pro, triplicate, perampanel: fluorescence of compound interfered with assay) 100 to 250 µM; under setting [3], 100 µM.

With `O=c1[nH]cc(-c2cc(-c3cc(Cl)cc(OCCc4ccccc4)c3)c(=O)n(-c3cccnc3)c2)c(=O)[nH]1` [Compound 29, 5-(3-(3-Chloro-5-phenethoxyphenyl)-2-oxo-2H-[1,3′-bipyridin]-5-yl)pyrimidine-2,4(1H, 3H)-dione], the IC50 turned out to be 0.11 µM (read-out: IC50) and 0.11 ± 0.013 µM under setting [2].

On to `COc1cc(Cl)cc(-c2cc(-c3c[nH]c(=O)[nH]c3=O)cn(-c3cccnc3)c2=O)c1` [Compound 18, 5-(3-(3-Chloro-5-methoxyphenyl)-2-oxo-2H-[1,3′-bipyridin]-5-yl)pyrimidine-2,4(1H,3H)-dione], for which the IC50 runs as follows: (read-out: IC50) 1.2 µM; under setting [2], 1.2 ± 0.03 µM; under setting [1], 1.2 ± 0.03 µM.

Consider `Cc1cccc(COc2cc(Cl)cc(-c3cc(-c4c[nH]c(=O)[nH]c4=O)cn(-c4cccnc4)c3=O)c2)c1` [Compound 32, 5-(3-(3-Chloro-5-((3-methylbenzyl)oxy)phenyl)-2-oxo-2H-[1,3′-bipyridin]-5-yl)pyrimidine-2,4(1H,3H)-dione], for which the IC50 reads like this: (IC50) 0.1 µM; under setting [2], 0.11 ± 0.035 µM; under setting [1], 0.11 ± 0.035 µM.

`CCCCOc1cc(Cl)cc(-c2cc(-c3c[nH]c(=O)[nH]c3=O)cn(-c3cccnc3)c2=O)c1` [Compound 25, 5-(3-(3-Butoxy-5-chlorophenyl)-2-oxo-2H-[1,3′-bipyridin]-5-yl)pyrimidine-2,4(1H,3H)-dione]: the IC50 worked out at 0.25 ± 0.09 µM under setting [2] and 0.25 ± 0.089 µM under setting [1].

As for `O=c1[nH]cc(-c2cc(-c3cc(Cl)cc(OCc4ccsc4Cl)c3)c(=O)n(-c3cccnc3)c2)c(=O)[nH]1` [Compound 49], the IC50 under setting [1] came to 0.0265 ± 0.004 µM.

With `COc1cc(CCOc2cc(Cl)cc(-c3cc(-c4ccccc4C#N)cn(-c4cccnc4)c3=O)c2)cc(OC)c1` [Compound 30], the IC50 under setting [1] is above 1 µM.

With `O=c1[nH]cc(-c2cc(-c3cc(Cl)cc(OCC4CC4)c3)c(=O)n(-c3cccnc3)c2)c(=O)[nH]1` [Compound 43], the IC50 under setting [1] came out at 0.037 ± 0.004 µM.

For `N#Cc1ccccc1-c1cc(-c2cccc(Cl)c2)c(=O)n(-c2ccc[n+]([O-])c2)c1` [Compound 10], the IC50 under setting [1] turned out to be 15.6 ± 2.37 µM.

Consider `O=c1[nH]cc(-c2cc(-c3cc(Cl)cc(OCC4CC4)c3)c(=O)n(-c3cccnc3)c2)c(=O)[nH]1` [Compound 40, 5-(3-(3-Chloro-5-(cyclopropylmethoxy)phenyl)-2-oxo-2H-[1,3′-bipyridin]-5-yl)pyrimidine-2,4(1H,3H)-dione], for which, under setting [3], the IC50 is around 290 µM.

On to `N#Cc1ccccc1-c1cc(-c2cc(Cl)cc(OCc3ccccc3)c2)c(=O)n(-c2cccnc2)c1` [Compound 14, 2-(3-(3-(Benzyloxy)-5-chlorophenyl)-2-oxo-2H-[1,3′-bipyridin]-5-yl)benzonitrile], for which the IC50 by setting is: (read-out: IC50) 0.28 µM; under setting [2], 0.28 ± 0.05 µM; under setting [1], 0.28 ± 0.05 µM.

Turning to `O=c1[nH]cc(-c2cc(-c3cc(Cl)cc(OCc4ccccc4)c3)c(=O)n(-c3cccnc3)c2)c(=O)[nH]1` [Compound 21], the IC50 stood at 0.128 µM (read-out: IC50) and 0.128 ± 0.015 µM under setting [1].

`N#Cc1ccccc1-c1cc(-c2cccc(Cl)c2)c(=O)n(-c2cccnc2)c1` [Compound 6, 2-(3-(3-Chlorophenyl)-2-oxo-2H-[1,3′-bipyridin]-5-yl)benzonitrile]: the IC50 (read-out: IC50) is 10 µM and the IC50 under setting [2] is 9.99 ± 2.5 µM.

Turning to `CC(C)(O)CCOc1cc(Cl)cc(-c2cc(-c3c[nH]c(=O)[nH]c3=O)cn(-c3cccnc3)c2=O)c1` [Compound 28], the IC50 under setting [1] lay within 0.25 to 0.5 µM.

For `O=c1[nH]cc(-c2cc(-c3cc(F)c(F)c(OCc4ccccc4F)c3)c(=O)n(-c3cccnc3)c2)c(=O)[nH]1` [Compound 45], the IC50 under setting [1] came to 0.03 ± 0.004 µM.

Turning to `Cc1ccccc1COc1cc(Cl)cc(-c2cc(-c3c[nH]c(=O)[nH]c3=O)cn(-c3cccnc3)c2=O)c1` [Compound 31, 5-(3-(3-Chloro-5-((2-methylbenzyl)oxy)phenyl)-2-oxo-2H-[1,3′-bipyridin]-5-yl)pyrimidine-2,4(1H,3H)-dione], the IC50 was 0.11 µM (IC50) and 0.1 ± 0.007 µM under setting [2].

For `CCNC(=O)COc1cc(Cl)cc(-c2cc(-c3ccccc3C#N)cn(-c3cccnc3)c2=O)c1` [Compound 33], the IC50 under setting [1] fell in the range of 0.5 to 1 µM.

Regarding `N#Cc1[nH]c(=O)ccc1-c1cc(-c2cccc(Cl)c2)c(=O)n(-c2cccnc2)c1` [Compound 23], under setting [1], the IC50 was 10 µM.

As to `COc1ccc(-c2cc(-c3cccc(Cl)c3)c(=O)n(-c3cccnc3)c2)c(C#N)n1` [Compound 22], under setting [1], the IC50 lay within 10 to 100 µM.

For `O=c1[nH]cc(-c2cc(-c3cccc(Cl)c3)c(=O)n(-c3cccnc3)c2)c(=O)[nH]1` [Compound 8, 5-(3-(3-Chlorophenyl)-2-oxo-2H-[1,3′-bipyridin]-5-yl)pyrimidine-2,4(1H,3H)-dione], the IC50 came to 6.4 µM (read-out: IC50) and 6.38 ± 1.21 µM under setting [1].

As for `O=c1[nH]cc(-c2cc(-c3cc(Cl)cc(OCc4ccccc4F)c3)c(=O)n(-c3cccnc3)c2)c(=O)[nH]1` [Compound 34, 5-(3-(3-Chloro-5-((2-fluorobenzyl)oxy)phenyl)-2-oxo-2H-[1,3′-bipyridin]-5-yl)pyrimidine-2,4(1H,3H)-dione], the IC50 runs as follows: (read-out: IC50) 0.018 to 0.037 µM; under setting [2], 0.024 ± 0.007 µM; under setting [1], 0.024 µM.

Turning to `N#Cc1cccc(-c2cc(-c3c[nH]c(=O)[nH]c3=O)cn(-c3cccnc3)c2=O)c1` [Compound 19], the IC50 under setting [1] amounted to 10 µM.

For `COc1cc(F)cc(-c2cc(-c3c[nH]c(=O)[nH]c3=O)cn(-c3cccnc3)c2=O)c1` [Compound 20], the IC50 under setting [1] lay in the range of 10 to 100 µM.

As for `CC(C)CCOc1cc(Cl)cc(-c2cc(-c3c[nH]c(=O)[nH]c3=O)cn(-c3cccnc3)c2=O)c1` [Compound 26, 5-(3-(3-Chloro-5-(isopentyloxy)phenyl)-2-oxo-2H-[1,3′-bipyridin]-5-yl)pyrimidine-2,4(1H, 3H)-dione], the IC50 amounted to 0.19 ± 0.03 µM under setting [2] and 0.19 ± 0.026 µM under setting [1].

Usually IC50 stands for the concentration that inhibits the measured activity by half.

The values are drawn from patent US20240092759A1, “Non-Covalent Inhibitors of the Main Protease of SARS-CoV-2 and Methods of Use” (YALE UNIVERSITY, priority 2021, published 2024).
